Source: ChEMBL document CHEMBL2396568, “An insight into synthetic Schiff bases revealing antiproliferative activities in vitro” (Bioorg Med Chem, 2013)

Experiments:
KB [1] = test: Antiproliferative activity against hydroxyurea-resistant human KB cells after 24 hrs by MTS assay; assay type: functional, cell-based
KB [2] = test: Antiproliferative activity against wild-type human KB cells after 24 hrs by MTS assay; assay type: functional, cell-based
[3] = Antiproliferative activity against human T-lymphoblastic leukemia cells by MTT assay; assay type: functional; conditions: Leukemia cell, read-out: CD50 (the source's name)
Artemia salina = test: Toxicity in brine shrimp; assay type: functional; conditions: read-out: ED50 (the source's name)
MCF7 [4] = test: Antiproliferative activity against doxorubicin-resistant human MCF7 cells after 72 hrs by neutral red uptake assay; assay type: functional, cell-based
KB [5] = test: Antiproliferative activity against human KB cells after 72 hrs by neutral red uptake assay; assay type: functional, cell-based
MCF7 [6] = test: Antiproliferative activity against wild-type human MCF7 cells after 72 hrs by neutral red uptake assay; assay type: functional, cell-based
K562 = test: Antiproliferative activity against human K562 cells by MTT assay; assay type: functional, cell-based
HeLa [7] = test: Antiproliferative activity against human HeLa cells after 48 hrs by MTT assay; assay type: functional, cell-based
A549 [8] = test: Antiproliferative activity against human A549 cells after 48 hrs by MTT assay; assay type: functional, cell-based; conditions: A549, 48 h
HeLa [9] = test: Antiproliferative activity against human HeLa cells after 24 hrs by MTT assay; assay type: functional, cell-based
A549 [10] = test: Antiproliferative activity against human A549 cells after 24 hrs by MTT assay; assay type: functional, cell-based; conditions: A549, 24 h
MCF7 [11] = test: Antiproliferative activity against human MCF7 cells after 24 hrs by MTT assay; assay type: functional, cell-based; conditions: MCF7, 24 h
PC-3 = test: Antiproliferative activity against human PC3 cells after 24 hrs by MTT assay; assay type: functional, cell-based; conditions: PC-3, 24 h
A2780 [12] = test: Antiproliferative activity against cisplatin-resistant human A2780 cells after 72 hrs by MTT assay; assay type: functional, cell-based; conditions: A2780, 72 h
A2780 [13] = test: Antiproliferative activity against human A2780 cells after 72 hrs by MTT assay; assay type: functional, cell-based; conditions: A2780, 72 h
[14] = Antiproliferative activity against human SW707 cells after 72 hrs by sulforhodamine B assay; assay type: functional; conditions: SW707, 72 h, read-out: ID50 (the source's name)
[15] = Antiproliferative activity against human HCV29T cells after 72 hrs by sulforhodamine B assay; assay type: functional; conditions: read-out: ID50 (the source's name)
WIL2-NS = test: Antiproliferative activity against human WIL2-NS cells after 96 hrs by MTT assay; assay type: functional, cell-based
CCRF-CEM = test: Antiproliferative activity against human CCRF-CEM cells after 96 hrs by MTT assay; assay type: functional, cell-based
CCRF-SB = test: Antiproliferative activity against human CCRF-SB cells after 96 hrs by MTT assay; assay type: functional, cell-based
MT4 = test: Antiproliferative activity against human MT4 cells after 96 hrs by MTT assay; assay type: functional, cell-based; conditions: MT4, 96 h
HCT-116 [16] = test: Selectivity ratio of IC50 for human HCT116 cells to IC50 for human Hep2 cells; assay type: functional
HEp-2 = test: Antiproliferative activity against human Hep2 cells after 48 hrs by sulforhodamine B assay; assay type: functional, cell-based; conditions: HEp-2, 48 h
HCT-116 [17] = test: Antiproliferative activity against human HCT116 cells after 48 hrs by sulforhodamine B assay; assay type: functional, cell-based; conditions: HCT-116, 48 h

O=C(NO)N/N=C/c1ccc(O)c(O)c1O
IC50 (KB [1]): 15.3 µM | IC50 (KB [2]): 37.5 µM

O=C(NO)N/N=C/c1ccc([N+](=O)[O-])s1
IC50 (KB [1]): 28 µM | IC50 (KB [2]): 27.2 µM

C(=N\Cc1ccco1)/c1c2ccccc2cc2ccccc12
CC50 [3]: 67.8 µM

CCC(C)C(/N=C1/c2c(O)cccc2Cc2cc(CO)cc(O)c21)C(=O)O (configuration not stated)
EC50 (Artemia salina): 246 µM

CC(O)C(/N=C1/c2c(O)cccc2Cc2cc(CO)cc(O)c21)C(=O)O (configuration not stated)
EC50 (Artemia salina): 339 µM

C/N=C/c1c(O)c(O)c(C(C)C)c2c1C(=O)C(C1=C(C)C(=O)c3c(c(/C=N/C)c(O)c(O)c3C(C)C)C1=O)=C(C)C2=O
IC50 (MCF7 [4]; Homo sapiens, MCF7, 72 h): 0.1 µM | IC50 (KB [5]; Homo sapiens, KB, 72 h): 0.5 µM | IC50 (MCF7 [6]; Homo sapiens, MCF7, 72 h): 0.4 µM

S=C(N/N=C(\c1ccccc1)c1ccccn1)SCc1ccccc1
IC50 (K562): 37 µM

O=C(O)C/N=C1/c2c(O)cccc2C([C@@H]2O[C@H](CO)[C@@H](O)[C@H](O)[C@H]2O)c2cc(CO)cc(O)c21 (some centres not stated)
EC50 (Artemia salina): 408 µM

CC(/N=C1/c2c(O)cccc2C([C@@H]2O[C@H](CO)[C@@H](O)[C@H](O)[C@H]2O)c2cc(CO)cc(O)c21)C(=O)O (some centres not stated)
EC50 (Artemia salina): 130 µM

O=C(O)C(Cc1ccccc1)/N=C1/c2c(O)cccc2C([C@@H]2O[C@H](CO)[C@@H](O)[C@H](O)[C@H]2O)c2cc(CO)cc(O)c21 (some centres not stated)
EC50 (Artemia salina): 312 µM

CC(C)CC(/N=C1/c2c(O)cccc2C([C@@H]2O[C@H](CO)[C@@H](O)[C@H](O)[C@H]2O)c2cc(CO)cc(O)c21)C(=O)O (some centres not stated)
EC50 (Artemia salina): 32 µM

CCC(C)C(/N=C1/c2c(O)cccc2C([C@@H]2O[C@H](CO)[C@@H](O)[C@H](O)[C@H]2O)c2cc(CO)cc(O)c21)C(=O)O (some centres not stated)
EC50 (Artemia salina): 35.2 µM

Cc1cc(O)c2c(c1)C([C@@H]1O[C@H](CO)[C@@H](O)[C@H](O)[C@H]1O)c1cccc(O)c1/C2=N/C(CS)C(=O)O (some centres not stated)
EC50 (Artemia salina): 10.2 µM

CSCCC(/N=C1/c2c(O)cccc2C([C@@H]2O[C@H](CO)[C@@H](O)[C@H](O)[C@H]2O)c2cc(CO)cc(O)c21)C(=O)O (some centres not stated)
EC50 (Artemia salina): 404 µM

CC(C)C(/N=C1/c2c(O)cccc2C([C@@H]2O[C@H](CO)[C@@H](O)[C@H](O)[C@H]2O)c2cc(CO)cc(O)c21)C(=O)O (some centres not stated)
EC50 (Artemia salina): 19.1 µM

CC(O)C(/N=C1/c2c(O)cccc2C([C@@H]2O[C@H](CO)[C@@H](O)[C@H](O)[C@H]2O)c2cc(CO)cc(O)c21)C(=O)O (some centres not stated)
EC50 (Artemia salina): 27.6 µM

O=C(O)C/N=C1/c2c(O)cccc2Cc2cc(CO)cc(O)c21
EC50 (Artemia salina): 1030 µM

CC(/N=C1/c2c(O)cccc2Cc2cc(CO)cc(O)c21)C(=O)O (configuration not stated)
EC50 (Artemia salina): 339 µM

O=C(O)C(Cc1ccccc1)/N=C1/c2c(O)cccc2Cc2cc(CO)cc(O)c21 (configuration not stated)
EC50 (Artemia salina): 335 µM

CC(C)CC(/N=C1/c2c(O)cccc2Cc2cc(CO)cc(O)c21)C(=O)O (configuration not stated)
EC50 (Artemia salina): 72.2 µM

Cc1cc(O)c2c(c1)Cc1cccc(O)c1/C2=N/C(CS)C(=O)O (configuration not stated)
EC50 (Artemia salina): 423 µM

CSCCC(/N=C1/c2c(O)cccc2Cc2cc(CO)cc(O)c21)C(=O)O (configuration not stated)
EC50 (Artemia salina): 836 µM

CC(C)C(/N=C1/c2c(O)cccc2Cc2cc(CO)cc(O)c21)C(=O)O (configuration not stated)
EC50 (Artemia salina): 145 µM

Clc1ccc(/C=N/c2ccccc2)c(Cl)c1
IC50 (HeLa [7]): 0.5 µM | IC50 (A549 [8]): 0.8 µM | IC50 (HeLa [9]): 1.3 µM | IC50 (A549 [10]): 1.4 µM

Cc1ccc(/C=N/c2ccccc2)c(C)c1
IC50 (HeLa [7]): 33 µM | IC50 (A549 [8]): 88.4 µM | IC50 (HeLa [9]): 115 µM | IC50 (A549 [10]): 144 µM

C(=N\c1ccccc1)/c1ccc2c(c1)OCO2
IC50 (HeLa [7]): 24.9 µM | IC50 (A549 [8]): 177 µM | IC50 (HeLa [9]): 42.2 µM | IC50 (A549 [10]): 207 µM

Oc1ccccc1/C=N\CCn1cccn1
IC50 (MCF7 [11]): 715 µM | IC50 (PC-3): 522 µM

Oc1c(Cl)cc(Cl)cc1/C=N\CCn1cccn1
IC50 (A2780 [12]): 26 µM | IC50 (MCF7 [11]): 32 µM | IC50 (A2780 [13]): 27 µM | IC50 (PC-3): 39 µM

Oc1c(I)cc(I)cc1/C=N\CCn1cccn1
IC50 (A2780 [12]): 25 µM | IC50 (MCF7 [11]): 34 µM | IC50 (A2780 [13]): 20 µM | IC50 (PC-3): 32 µM

COc1ccc(/C=N/c2nc3ccccc3[nH]2)cc1
IC50 [14]: 183 µM | IC50 [15]: 179 µM

COc1ccc(/C=N/c2nc3ccccc3[nH]2)cc1OC
IC50 [14]: 154 µM | IC50 [15]: 106 µM

COc1cc(/C=N/c2nc3ccccc3[nH]2)cc(OC)c1OC
IC50 [14]: 50.4 µM | IC50 [15]: 52.4 µM

Brc1ccccc1/C=N/c1nc2ccccc2[nH]1
IC50 [14]: 26.3 µM | IC50 [15]: 35.3 µM

Brc1ccc(/C=N/c2nc3ccccc3[nH]2)cc1
IC50 [14]: 33.3 µM | IC50 [15]: 32 µM

Clc1ccccc1/C=N/c1nc2ccccc2[nH]1
IC50 [14]: 63.4 µM | IC50 [15]: 31.7 µM

Clc1cccc(/C=N/c2nc3ccccc3[nH]2)c1
IC50 [14]: 52.4 µM | IC50 [15]: 75.5 µM

O=[N+]([O-])c1ccc(/C=N/c2nc3ccccc3[nH]2)cc1
IC50 [14]: 87.1 µM | IC50 [15]: 88.3 µM

FC(F)(F)c1ccc(/C=N/c2nc3ccccc3[nH]2)cc1
IC50 [15]: 200 µM

Clc1cccc(/C=N\c2nsc3ccccc23)c1
IC50 (WIL2-NS): 10 µM | IC50 (CCRF-CEM): 2 µM | IC50 (CCRF-SB): 4 µM | IC50 (MT4): 6 µM

COc1cccc(/C=N\c2nsc3ccccc23)c1O
IC50 (WIL2-NS): 10 µM | IC50 (CCRF-CEM): 2 µM | IC50 (CCRF-SB): 5 µM | IC50 (MT4): 5 µM

COc1cc(/C=N\c2nsc3ccccc23)ccc1O
IC50 (WIL2-NS): 10 µM | IC50 (CCRF-CEM): 2.5 µM | IC50 (CCRF-SB): 4 µM | IC50 (MT4): 5 µM

Cc1ccc2snc(/N=C\c3ccccc3O)c2c1
IC50 (WIL2-NS): 6 µM | IC50 (CCRF-CEM): 2 µM | IC50 (CCRF-SB): 3 µM | IC50 (MT4): 5 µM

Cc1ccc2snc(/N=C\c3ccccc3Cl)c2c1
IC50 (WIL2-NS): 5 µM | IC50 (CCRF-CEM): 1.5 µM | IC50 (CCRF-SB): 3 µM | IC50 (MT4): 3 µM

Cc1ccc2snc(/N=C\c3cccc(Cl)c3)c2c1
IC50 (WIL2-NS): 7 µM | IC50 (CCRF-CEM): 1.5 µM | IC50 (CCRF-SB): 4 µM | IC50 (MT4): 2 µM

COc1ccc(/C=N\c2nsc3ccc(C)cc23)cc1
IC50 (WIL2-NS): 6.5 µM | IC50 (CCRF-CEM): 1.5 µM | IC50 (CCRF-SB): 4 µM | IC50 (MT4): 4 µM

Oc1ccc(Br)cc1/C=N/Cc1cccs1
Ratio IC50 (HCT-116 [16]): >2 | IC50 (HEp-2): 3.8 µM | IC50 (HCT-116 [17]): 9.1 µM

O=[N+]([O-])c1ccc(/C=N/c2ccccc2)cc1
IC50 (HeLa [7]): 123 µM | IC50 (A549 [8]): 1.6 µM | IC50 (HeLa [9]): 165 µM | IC50 (A549 [10]): 2 µM

FC(F)(F)c1ccc(/C=N/c2ccccc2)cc1
IC50 (HeLa [7]): 0.9 µM | IC50 (A549 [8]): 138 µM | IC50 (HeLa [9]): 1.9 µM | IC50 (A549 [10]): 161 µM

O=C(NO)N/N=C/c1cc(Cl)cc(Cl)c1O
IC50 (KB [1]): 21.2 µM | IC50 (KB [2]): 22.2 µM

CSC(=S)N/N=C(\c1ccccc1)c1ccccn1
IC50 (K562): 35 µM

CC/N=C/c1c(O)c(O)c(C(C)C)c2cc(C)c(-c3c(C)cc4c(C(C)C)c(O)c(O)c(/C=N/CC)c4c3O)c(O)c12 (stereo in doubt; (+)-74)
IC50 (MCF7 [4]; mcf7): 0.3 µM | IC50 (KB [5]; kb): 1.6 µM | IC50 (MCF7 [6]; mcf7): 1 µM

CC/N=C/c1c(O)c(O)c(C(C)C)c2cc(C)c(-c3c(C)cc4c(C(C)C)c(O)c(O)c(/C=N/CC)c4c3O)c(O)c12 (stereo in doubt; (+/-)-74)
IC50 (MCF7 [4]; mcf7): 0.4 µM | IC50 (KB [5]; kb): 1 µM | IC50 (MCF7 [6]; mcf7): 5 µM

CC/N=C/c1c(O)c(O)c(C(C)C)c2cc(C)c(-c3c(C)cc4c(C(C)C)c(O)c(O)c(/C=N/CC)c4c3O)c(O)c12 (stereo in doubt; (-)-74)
IC50 (MCF7 [4]; mcf7): 0.8 µM | IC50 (KB [5]; kb): 0.3 µM | IC50 (MCF7 [6]; mcf7): 0.2 µM
